Several values for one entry are separate records, joined by “and”; a condition that tells them apart may be missing. Equal values may be shown once. Read-outs that look alike come from different tables or passages of the source.
Legend:
Type in all cases: in vivo
6-OHDA injected mice [1] = assay: 6-OHDA cylinder test (motor performance); settings: 10 mg/kg, three days pre-treatment before 6-OHDA (80 μg); seven day test
Method: The data presented in FIG. 2B as mean and standard error of the mean (SEM), for a seven day test. Statistical analyses as compared to baseline mice were performed using the one-way Anova test (*: p<0.05). […] Data is presented as mean and SEM. Statistical analyses were performed using one-way Anova test (*: p<0.05; ***: p<0.001. n.s.: not significant.)

6-OHDA injected mice [2] = assay: Anti-TH immunohistochemistry, 6-OHDA-induced TH+ neuronal loss in SN; settings: 10 mg/kg
Method: (§1) Immunohistochemistry analysis using anti-tyrosine hydroxylase (TH) antibody was also performed to quantify 6-OHDA-induced neuronal loss in mice injected with 6-OHDA and non-injected (control) sides of the brain. […] FIG. 4B presents the mean and standard error of the mean (SEM) as well as statistical analysis of the results. […] This staining data was confirmed by staining for TH protein expression in the 6-OHDA-treated striatum.

[3] = Whole blood concentrations after IP administration to mice (LC-MS/MS); settings: for concentration at 1 h: Day 3, 1.00 hrs; for concentration at 24 h: Day 3, 24.0 hrs
Method: These determinations were made using protein precipitation, liquid chromatography (LC), and mass spectrometry (MS/MS). Ten μl aliquots of whole blood and matrix calibration standards were distributed in a 96-well plate; 10 μl aliquots of blank matrix for matrix blanks and control blanks were included as controls. Ten μl of water was added to each sample followed by vortexing. […] This was followed by a five-minute vortex at >3500 rpm. One hundred fifty μl of the resultant supernatant was then transferred to a new 96-well plate and the samples blown to dryness at 35° C. […]

6-OHDA injected mice [4] = assay: TH protein expression in 6-OHDA-treated striatum; settings: 3 mg/kg, two-day pre-treatment
Method: as §1

6-OHDA injected mice [5] = assay: Anti-TH immunohistochemistry, 6-OHDA-induced striatal denervation; settings: 10 mg/kg
Method: Immunohistochemistry analysis using anti-tyrosine hydroxylase (TH) antibody was performed in mouse midbrain sections to quantify 6-OHDA-induced striatal denervation in mice injected with 6-OHDA and non-injected (control) sides of the brain. […] In contrast, both the 6-OHDA/rapamycin-treated and the 6-OHDA/Formula I-treated sides of the brain show increased staining with the anti-TH antibody, as indicated by the dark shading in those figures. FIG. 3B presents the mean and standard error of the mean (SEM) of the integrated density of anti-TH antibody staining in the striatum, as well as statistical analysis of the results for the groups of mice.

[6] = Brain concentrations after IP administration to mice (LC-MS/MS of brain homogenates); settings: for Concentration in Mouse Brain, individual animals / concentration at 24 h: Day 3, 24.0 hrs; for Concentration in Mouse Brain, individual animals: Animal ID 1-3; for concentration at 24 h: mouse, brain, ip
Method: To carry out these assays using brain homogenates, 20 uL of samples and matrix calibration standards into wells of a 96-well plate, and 10 uL of blank matrix allocated for matrix blanks and control blanks. 160 uL internal standard was then added to all samples except matrix blanks, and 160 uL ACN added to matrix blanks. Samples were then vortexed for 5 minutes and centrifuge for 5 minutes at >3500 rpm. 150 uL of the supernatant was then transferred to a new 96-well plate, and the plates blown down to dryness at 35° C., reconstituted with 90 uL of 70:30 water:acetonitrile (ACN) solution, covered and vortexed prior to analysis. LC and MS conditions were the same as described above for the whole blood analysis.

[7] = 2 mg/kg or 10 mg/kg IP QD for three days
[8] = mouse, whole blood, intraperitoneal, 10 mg/kg, 10 mg/kg IP QD x 3 days, Animal ID 4-6, read-out: Concentration in Mouse Whole Blood, individual animals
[9] = mouse, whole blood, intraperitoneal, 10 mg/kg, 10 mg/kg IP QD x 3 days, read-out: Concentration in Mouse Whole Blood, Mean

With CO[C@H]1C[C@@H]2CC[C@@H](C)[C@@](O)(O2)C(=O)C(=O)N2CCCC[C@H]2C(=O)O[C@H]([C@H](C)C[C@@H]2C[C@@H]3C[C@H]2C[C@H]3O)CC(=O)[C@H](C)/C=C(\C)[C@@H](O)[C@@H](OC)C(=O)[C@H](C)C[C@H](C)/C=C/C=C/C=C/1C [Formula I, 37R-hydroxynorbornylrapamycin] the “Contralateral touches, percent total touches (FIG. 2B)” value (6-OHDA injected mice [1]) was “outperformed rapamycin and the vehicle control by bringing the number of touches closer to that of baseline mice”, the “6-OHDA-induced neuronal loss vs vehicle control (TH-positive somas in SN, FIG. 4A)” value (6-OHDA injected mice [2]) was “decreased 6-OHDA-induced neuronal loss as compared to vehicle control” and the “Whole blood exposure (in words)” value [3, 7] was “sufficient concentrations in whole blood over time”. For the same molecule, the “Concentration in Mouse Whole Blood, individual animals” value ([3]; 10 mg/kg IP QD x 3 days, Day 2, 1.00 hrs, Animal ID 4-6) was “AQL (Original value above quantitation limit (1000 ng/mL))”, the “Concentration in Mouse Whole Blood, individual animals” value ([3]; 10 mg/kg IP QD x 3 days, Day 2, 6.00 hrs, Animal ID 4-6) was “AQL (Original value above quantitation limit (1000 ng/mL))” and the concentration at 1 h [3, 8] was 2890 ng/mL. It also gave a concentration at 1 h [3, 9] of 3200 ng/mL, a concentration at 2 h ([3]; mouse, whole blood, intraperitoneal, 10 mg/kg, 10 mg/kg IP QD x 3 days, Day 3, 2.00 hrs) of 1900 ng/mL and a concentration at 6 h ([3]; mouse, whole blood, intraperitoneal, 10 mg/kg, 10 mg/kg IP QD x 3 days, Day 3, 6.00 hrs) of 1380 ng/mL. The concentration at 24 h [3, 8] was 292 ng/mL, the concentration at 24 h [3, 9] was 372 ng/mL and the “TH protein expression in 6-OHDA-treated striatum (FIGS. 4C-4F)” value (6-OHDA injected mice [4]) was “non-statistically significant difference”. The “6-OHDA-induced striatal denervation vs rapamycin (FIG. 3A)” value (6-OHDA injected mice [5]) was “also decreased 6-OHDA-induced denervation as compared to rapamycin”, the “6-OHDA-induced striatal denervation vs vehicle control (TH integrated density, FIG. 3A)” value (6-OHDA injected mice [5]) was “decreased 6-OHDA-induced denervation as compared to vehicle control” and the “Brain exposure (in words)” value [6, 7] was “sufficient concentrations in brain over time”. For the same molecule, the “Concentration in Mouse Brain, individual animals” value ([6]; Group 1 (2 mg/kg) IP QD x 3 days, 2 mg/kg) was 31.1 ng/g and 39.2 ng/g and 68.1 ng/g, the “Concentration in Mouse Brain, individual animals” value ([6]; Group 2 (10 mg/kg) IP QD x 3 days, 10 mg/kg) was 140 ng/g (2×) and 299 ng/g and the concentration at 24 h ([6]; 2 mg/kg, Group 1 (2 mg/kg) IP QD x 3 days) was 46.1 ng/g. It also gave a concentration at 24 h ([6]; 10 mg/kg, Group 2 (10 mg/kg) IP QD x 3 days) of 193 ng/g.

Source: patent US20210030726A1 (MOUNT TAM THERAPEUTICS, INC., priority 2018, published 2021)
